Test results from patent publication US20200339625A1, “NOVEL RADIOMETAL-BINDING COMPOUNDS FOR DIAGNOSIS OR TREATMENT OF PROSTATE SPECIFIC MEMBRANE ANTIGEN-EXPRESSING CANCER” (PROVINCIAL HEALTH SERVICES AUTHORITY, priority 2017, published 2020).

How the values were obtained:
[1] = tested on: mice bearing LNCaP tumor xenografts; test: PET/CT imaging of 68Ga-labeled compounds; assay type: in vivo
Procedure: 2.17 PET/CT Imaging and Biodistribution
(§1) Imaging and biodistribution experiments were performed using NODSCID 1L2RyKO male mice. Mice were anesthetized by inhalation with 2% isoflurane in oxygen, and implanted subcutaneously with 1×10^7 LNCaP cells behind left shoulder. Mice were imaged or used in biodistribution studies when the tumor grew up to reach 5-8 mm in diameter during 5-6 weeks.
PET imaging experiments were conducted using Siemens Inveon micro PET/CT scanner. Each tumor bearing mouse was injected 6-8 MBq of 68Ga-labeled tracer through the tail vein under anesthesia (2% isoflurane in oxygen). The mice were allowed to recover and roam freely in their cage. After 50 min, the mice were sedated again with 2% isoflurane in oxygen inhalation and positioned in the scanner. A 10-min CT scan was conducted first for localization and attenuation correction after segmentation for reconstructing the PET images. Then, a 10-min static PET imaging was performed to determined uptake in tumor and other organs. The mice were kept warm by a heating pad during acquisition. For imaging studies acquired at 3 h post-injection (p.i.), the mice were placed in the micro PET/CT scanner at 170 min p.i. Then, the CT acquisitions were conducted as described above, a 15-min static PET imaging was performed to determined uptake in tumor and other organs.

[2] = tested on: mice bearing PSMA-expressing LNCAP cancer xenografts; test: Biodistribution of 68Ga-labeled compounds; assay type: in vivo
Procedure: as §1
For biodistribution studies, the mice were injected with the radiotracer as described above. At predetermined time points (1 or 3 h), the mice was anesthetized with 2% isoflurane inhalation, and euthanized by CO2 inhalation. Blood was withdrawn immediately from the heart, and the organs/tissues of interest were collected. The collected organs/tissues were weighed and counted using an automatic gamma counter. The uptake in each organ/tissue was normalized to the injected dose using a standard curve, and expressed as the percentage of the injected dose per gram of tissue (% ID/g).

change of tumor uptake from 1 h to 3 h post-injection ([1]; PET/CT images): uptake in tumors increases over time
blood retention (qualitative) ([1]; PET/CT images at 1 h and 3 h post-injection, comparison within the figure): some extent of blood retention
Adrenal glands uptake ([2]; 1 h post-injection): 3.78 ± 0.46 % ID/g
Blood uptake ([2]; 1 h post-injection): 4.68 ± 1.09 % ID/g
Bone uptake ([2]; 1 h post-injection): 0.76 ± 0.14 % ID/g
Brain uptake ([2]; 1 h post-injection): 0.10 ± 0.03 % ID/g
Fat uptake ([2]; 1 h post-injection): 0.87 ± 0.53 % ID/g
Heart uptake ([2]; 1 h post-injection): 1.29 ± 0.34 % ID/g
Intestine uptake ([2]; 1 h post-injection): 0.60 ± 0.14 % ID/g
Kidneys uptake ([2]; 1 h post-injection): 123 ± 30.4 % ID/g
Lacrimal uptake ([2]; 1 h post-injection): 1.35 ± 0.43 % ID/g
Liver uptake ([2]; 1 h post-injection): 1.02 ± 0.34 % ID/g
Lungs uptake ([2]; 1 h post-injection): 3.28 ± 0.85 % ID/g
Muscle uptake ([2]; 1 h post-injection): 0.53 ± 0.11 % ID/g
Pancreas uptake ([2]; 1 h post-injection): 0.85 ± 0.15 % ID/g
Salivary uptake ([2]; 1 h post-injection): 3.34 ± 0.89 % ID/g
Seminal uptake ([2]; 1 h post-injection): 0.74 ± 0.39 % ID/g
Spleen uptake ([2]; 1 h post-injection): 3.92 ± 0.88 % ID/g
Stomach uptake ([2]; 1 h post-injection): 0.27 ± 0.10 % ID/g
Tail uptake ([2]; 1 h post-injection): 1.43 ± 0.34 % ID/g
Testes uptake ([2]; 1 h post-injection): 0.98 ± 0.22 % ID/g
Thyroid uptake ([2]; 1 h post-injection): 1.49 ± 0.44 % ID/g
Tumor uptake ([2]; 1 h post-injection): 25.9 ± 3.21 % ID/g
Tumor:Blood ratio ([2]; 1 h post-injection): 5.67 ± 0.97
Tumor:Muscle ratio ([2]; 1 h post-injection): 49.7 ± 5.98
Tumor:kidney ratio ([2]; 1 h post-injection): 0.22 ± 0.04
Urine uptake ([2]; 1 h post-injection): 203 ± 88.0 % ID/g
Adrenal glands uptake ([2]; 3 h post-injection): 3.95 ± 2.28 % ID/g
Blood uptake ([2]; 3 h post-injection): 1.17 ± 0.36 % ID/g
Bone uptake ([2]; 3 h post-injection): 1.93 ± 1.51 % ID/g
Brain uptake ([2]; 3 h post-injection): 0.12 ± 0.05 % ID/g
Fat uptake ([2]; 3 h post-injection): 0.58 ± 0.13 % ID/g
Heart uptake ([2]; 3 h post-injection): 0.59 ± 0.26 % ID/g
Intestine uptake ([2]; 3 h post-injection): 0.34 ± 0.04 % ID/g
Kidneys uptake ([2]; 3 h post-injection): 31.1 ± 15.2 % ID/g
Lacrimal uptake ([2]; 3 h post-injection): 3.01 ± 1.26 % ID/g
Liver uptake ([2]; 3 h post-injection): 0.43 ± 0.08 % ID/g
Lungs uptake ([2]; 3 h post-injection): 1.39 ± 0.53 % ID/g
Muscle uptake ([2]; 3 h post-injection): 0.46 ± 0.30 % ID/g
Pancreas uptake ([2]; 3 h post-injection): 0.41 ± 0.09 % ID/g
Salivary uptake ([2]; 3 h post-injection): 2.06 ± 1.16 % ID/g
Seminal uptake ([2]; 3 h post-injection): 0.29 ± 0.08 % ID/g
Spleen uptake ([2]; 3 h post-injection): 2.10 ± 1.16 % ID/g
Stomach uptake ([2]; 3 h post-injection): 0.14 ± 0.03 % ID/g
Tail uptake ([2]; 3 h post-injection): 0.54 ± 0.22 % ID/g
Testes uptake ([2]; 3 h post-injection): 0.56 ± 0.19 % ID/g
Thyroid uptake ([2]; 3 h post-injection): 0.72 ± 0.29 % ID/g
Tumor uptake ([2]; 3 h post-injection): 32.9 ± 10.9 % ID/g
Tumor:Blood ratio ([2]; 3 h post-injection): 30.4 ± 13.2
Tumor:Muscle ratio ([2]; 3 h post-injection): 98.6 ± 61.8
Tumor:kidney ratio ([2]; 3 h post-injection): 1.22 ± 0.53
Urine uptake ([2]; 3 h post-injection): 275 ± 158 % ID/g
Compound: O=C([O-])CN1CCN(CC(=O)[O-])CCN(CC(=O)NCCCC[C@H](NC(=O)CNC(=O)CCCc2ccccc2)C(=O)NC[C@H]2CC[C@H](C(=O)N[C@@H](Cc3ccc4ccccc4c3)C(=O)NCCCC[C@H](NC(=O)N[C@@H](CCC(=O)O)C(=O)O)C(=O)O)CC2)CCN(CC(=O)[O-])CC1.[68Ga+3] [^68Ga-HTK03056]
